Experimental data taken from paper PMC12384008, “Assessment of Biological Activity of Low Molecular Weight 1,4-Benzoquinone Derivatives” (Biomolecules, 2025).
Where “and” joins values, the source holds several entries; their conditions need not be identical. Equal values may be shown once. Read-outs that look alike come from different tables or passages of the source.

How the values were obtained:
[1] = set-up: method as in doi:10.2298/JSC220304044D; conditions: previous study ref 56; cited from earlier work
recombinant human AChE = target: T1, recombinant human AChE (Homo sapiens, UniProt P22303); assay: Inhibition of AChE (modified Ellman method, Hunter–Downs evaluation); type: biochemical; conditions: for AChE type of inhibition (in words): according to Hunter–Downs plot; for times less potent as inhibitor of AChE than donepezil: compared to donepezil Ki of ref 50; for times less potent as inhibitor of AChE than galantamine: compared to galantamine Ki of ref 50; for fold higher AChE inhibition potency than meta position counterpart: para compounds 5 and 3 vs meta compounds 4 and 2; for AChE Ki: ATCh 0.05–0.50 mM
T1 construct: gift of Dr Florian Nachon (IRBA, Brétigny-sur-Orge, France)
Description: All measurements of cholinesterase activity were performed in 0.1 M sodium phosphate buffer (pH 7.4). Acetylthiocholine (ATCh), used as a substrate, and thiol reagent 5,5′-dithiobis (2-nitrobenzoic acid) (DTNB) were purchased from Sigma–Aldrich, St. Louis, MO, USA. ATCh was dissolved in water and DTNB in sodium phosphate buffer. Stock solutions of compounds were prepared in DMSO (Gram-mol, Zagreb, Croatia), and all further dilutions were carried out in water. As the source of AChE and BChE, purified native human BChE and recombinant human AChE, both kindly provided by Dr Florian Nachon (Département de Toxicologie, Armed Forces Biomedical Research Institute (IRBA), Brétigny-sur-Orge, France), were used. Both enzymes were diluted in a phosphate buffer containing 0.1% BSA, while further dilutions were in a phosphate buffer with 0.01% BSA.
Enzyme activity measurements were carried out spectrophotometrically using a slightly modified Ellman method, as previously described. […] At least three inhibitor concentrations were used at each substrate concentration in at least three experiments. To calculate the enzyme inhibitor dissociation constants (Ki), the Hunter–Downs equation and the linear regression analysis were used:Ki,app = (vi∙i)/(v0 − vi) = Ki + Ki/KS s where Ki,app stands for the apparent inhibition constant and KS for the enzyme–substrate dissociation constant.
The final content of DMSO in measurements was up to 0.4%, and inhibitory reactions containing more than 0.1% of DMSO were corrected for control reactions containing a corresponding concentration of DMSO. No side interactions of the tested compounds with ATCh or DTNB were detected. Measurements were performed at 25 °C and wavelength λ = 412 nm on a Tecan Infinite M200Pro (Tecan Austria GmbH, Salzburg, Austria), and for all calculations, the statistical package GraphPadPrism 8 (Graph Pad Inc., San Diego, CA, USA) was used.
The selectivity index (SI) was determined using the following ratio: SI = Ki(AChE)/Ki(BChE).

[2] = target: T2, purified native human BChE (Homo sapiens, UniProt P06276); assay: biochemical; type: biochemical; conditions: for SI = Ki(AChE)/Ki(BChE): selectivity index
T2 construct: purified native human BChE; tissue gift of Dr Florian Nachon (IRBA, Brétigny-sur-Orge, France)

[3] = ORAC assay (peroxyl radical antioxidant activity); conditions: benzoquinone 50 µM
Description: For the determination of antioxidant capacity by ORAC method, the commercially available OxiSelect™ Oxygen Radical Antioxidant Capacity (ORAC) Activity Assay kit was used (cat. no. STA-345, Cell Biolabs, Inc., San Diego, CA, USA).
The ability of benzoquinones to prevent excessive oxidation caused by ROS was tested using the commercially available OxiSelect™ Oxygen Radical Antioxidant Capacity (ORAC) Activity Assay kit (cat. no. STA-345, Cell Biolabs, Inc., San Diego, CA, USA), following the manufacturer’s protocol with slight adjustments concerning the antioxidant standard final concentrations. Stock solutions of benzoquinones were prepared in DMSO while 5 mM Trolox (used as an antioxidant standard) was provided by the manufacturer as a solution, and their further dilutions were carried out in 50% v/v acetone. Benzoquinones (50 µM) and Trolox (2.5–50 µM) were incubated with 1x Fluorescein Solution in 96-well black microplates at 37 °C for 30 min. After incubation time, Free Radical Initiator Solution was added. The sample reading was performed at 37 °C with an excitation wavelength of 480 nm and an emission wavelength of 520 nm. […] Net AUC values were compared to a Trolox standard curve and antioxidant capacity was presented as Trolox equivalent (TE) concentrations. All readouts were recorded on a plate reader (SpectraMax iD3, Molecular Devices, LLC, San Jose, CA, USA). Calculations were performed using the statistical package GraphPadPrism 8 (Graph Pad Inc, San Diego, CA, USA).
The ORAC assay was used to evaluate the ability of 1,4-benzoquinone derivatives to prevent oxidative damage caused by generation of ROS. In this assay, the quenching of the fluorescent probe (fluorescein) over time by the peroxyl radicals generated by the Free Radical Initiator Solution was monitored. Since the antioxidant capacity of benzoquinones correlates with the fluorescence decay, the peroxyl radical antioxidant activity of the selected compounds was determined by comparing the antioxidant standard curve of Trolox and was expressed as TE (Trolox equivalents)/µM [58].

[4] = target: T3, human recombinant β-secretase (BACE1) (Homo sapiens, UniProt P56817); assay: Inhibition of BACE1 (spectrofluorimetric method); type: biochemical; conditions: 50 μM compound; three independent measurements ± SD
T3 construct: purchased Sigma Aldrich, St. Louis, MO, USA S4195
Description: For the determination of BACE1 activity, a human recombinant β-secretase (BACE1) (cat. no. S4195, Sigma Aldrich, St. Louis, MO, USA) as the source of the enzyme and 7-Methoxycoumarin-4-acetyl-[Asn670, Leu671]-Amyloid β/A4 Precursor Protein 770 Fragment 667–676(2,4-dinitrophenyl)Lys-Arg-Arg amide (cat. no. A1472, Sigma Aldrich, St. Louis, MO, USA) as the substrate were used. All measurements were conducted in 50 mM sodium acetate buffer (pH 4.5) with 0.005% Triton X-100. Commercially available β-secretase Inhibitor III (cat. no. 565780, EMD Millipore Corp., Billerica, MA, USA) was used as positive control.
BACE1 activity was determined using a slightly modified spectrofluorimetric method, as described in our previous work. Stock solutions of tested compounds were prepared in DMSO, and further dilutions were carried out in 50 mM sodium acetate buffer (pH 4.5) containing 0.005% Triton X-100. […] To eliminate any potential influence of benzoquinone and/or buffer on the intensity of fluorescence signal, non-enzymatic (buffer, substrate, and benzoquinones) and blank reactions (buffer and substrate only) were also measured and subtracted from inhibition and control reaction, respectively. As a positive control of BACE1 inhibition, commercially available β-secretase Inhibitor III (EMD Millipore Corp., Billerica, MA, USA) was used (5 µM), which inhibited over 90% of BACE1 activity, corresponding to the manufacturer’s data. All fluorescence signal readouts were recorded at room temperature (25 °C) at zero and two hours after incubation at 37 °C, on a plate reader (SpectraMax iD3, Molecular Devices, LLC, San Jose, CA, USA) with excitation at 320 nm and emission at 405 nm.

[5] = FRAP assay (ferric-reducing antioxidant power); conditions: 50 and 100 μM
Description: All chemicals for FRAP antioxidant activity measurements were purchased from Sigma Aldrich (St. Louis, MO, USA), except for FeCl3 and tripyridyltriazine (TPTZ), which were purchased from Kemika, Zagreb, Croatia, and Fluka, Buchs, Switzerland, respectively.
A ferric-reducing antioxidant power (FRAP) assay was used to determine the antioxidant capacity of tested benzoquinones, following a slightly modified protocol by Benzie and Strain [41, 42]. The water-soluble derivative of vitamin E (Trolox) and butylated hydroxytoluene (BHT) were used as standard antioxidants. […] All absorbance readouts were recorded at 593 nm against a blank and corrected for the value of absorbance of corresponding benzoquinone alone. All measurements were performed in three independent experiments. FRAP values were calculated using a standard curve for FeSO4 × 7H2O. All readouts were recorded on a plate reader (SpectraMax iD3, Molecular Devices, LLC, San Jose, CA, USA).

[6] = 400 μM compound (maximum concentration used), 0.1 mM ATCh

T3 sequence (P56817 46-501): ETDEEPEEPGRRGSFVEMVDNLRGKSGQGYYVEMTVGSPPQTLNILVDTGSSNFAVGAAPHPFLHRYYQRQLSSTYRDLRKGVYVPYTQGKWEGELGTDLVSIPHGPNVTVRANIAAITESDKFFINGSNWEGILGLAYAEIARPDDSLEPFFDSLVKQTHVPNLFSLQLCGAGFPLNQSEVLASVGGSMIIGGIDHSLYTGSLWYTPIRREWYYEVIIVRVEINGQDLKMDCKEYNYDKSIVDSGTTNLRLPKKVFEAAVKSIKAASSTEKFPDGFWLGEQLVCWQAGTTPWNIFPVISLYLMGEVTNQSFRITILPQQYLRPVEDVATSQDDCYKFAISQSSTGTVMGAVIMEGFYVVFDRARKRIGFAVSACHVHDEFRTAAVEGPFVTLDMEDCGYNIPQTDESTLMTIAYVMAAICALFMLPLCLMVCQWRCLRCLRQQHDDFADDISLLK
T2 sequence (P06276 29-602): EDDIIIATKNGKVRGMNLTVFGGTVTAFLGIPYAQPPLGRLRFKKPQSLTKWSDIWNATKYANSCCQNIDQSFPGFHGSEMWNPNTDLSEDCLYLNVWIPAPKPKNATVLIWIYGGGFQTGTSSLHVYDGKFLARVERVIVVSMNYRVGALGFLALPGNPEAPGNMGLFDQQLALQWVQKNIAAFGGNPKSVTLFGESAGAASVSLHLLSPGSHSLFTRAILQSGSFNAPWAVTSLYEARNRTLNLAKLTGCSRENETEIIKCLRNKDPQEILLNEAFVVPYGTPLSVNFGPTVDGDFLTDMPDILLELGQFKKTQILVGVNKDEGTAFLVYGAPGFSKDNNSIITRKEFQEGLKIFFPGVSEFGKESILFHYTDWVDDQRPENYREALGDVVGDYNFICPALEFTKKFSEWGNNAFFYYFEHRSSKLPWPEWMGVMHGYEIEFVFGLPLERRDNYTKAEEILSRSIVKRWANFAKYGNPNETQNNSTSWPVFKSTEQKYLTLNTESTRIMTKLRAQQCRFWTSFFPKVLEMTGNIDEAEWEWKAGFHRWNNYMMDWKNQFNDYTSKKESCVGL
T1 sequence (P22303 32-614): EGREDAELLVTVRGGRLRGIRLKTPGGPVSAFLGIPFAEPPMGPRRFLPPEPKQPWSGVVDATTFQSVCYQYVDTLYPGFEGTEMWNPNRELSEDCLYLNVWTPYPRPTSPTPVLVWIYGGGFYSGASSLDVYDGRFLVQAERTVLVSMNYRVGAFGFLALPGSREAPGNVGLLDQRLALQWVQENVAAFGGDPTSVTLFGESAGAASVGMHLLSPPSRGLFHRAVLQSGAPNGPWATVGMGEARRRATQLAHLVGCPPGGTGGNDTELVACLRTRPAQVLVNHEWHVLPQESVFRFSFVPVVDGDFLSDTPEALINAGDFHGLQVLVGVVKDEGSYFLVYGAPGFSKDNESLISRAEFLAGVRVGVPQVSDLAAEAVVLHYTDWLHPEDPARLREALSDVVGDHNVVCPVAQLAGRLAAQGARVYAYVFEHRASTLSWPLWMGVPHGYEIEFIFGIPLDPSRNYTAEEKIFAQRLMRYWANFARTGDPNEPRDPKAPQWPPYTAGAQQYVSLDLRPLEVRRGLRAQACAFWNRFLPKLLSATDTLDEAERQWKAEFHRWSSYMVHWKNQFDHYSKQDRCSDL

| SMILES | Ki (recombinant human AChE; read-out: AChE Ki) [µM] | Ki ([2]; read-out: BChE Ki) [µM] | SI = Ki(AChE)/Ki(BChE) [2] | ORAC value, TE (Trolox equivalents) [3] | inhibition at 50 µM [4] [%] | also measured |
| --- | --- | --- | --- | --- | --- | --- |
| CC(C)(C)C1=CC(=O)C2=C(SCCS2)C1=O [Compound 11] |  |  |  |  |  | DPPH antioxidant activity relative to ascorbic acid [1]: approximately twice as potent as ascorbic acid |
| CC(C)(C)C1=CC(=O)C=C(Sc2ccc3ccccc3c2)C1=O [Compound 10] | 30 ± 3 | 37 ± 5 | 0.81 | 9.3 ± 0.5 µM | 26.2 | AChE type of inhibition (in words) (recombinant human AChE): mixed-type |
| CC(C)(C)C1=CC(=O)C=C(SCCc2ccccc2)C1=O [Compound 9] | 24 ± 1 | 25 ± 3 | 0.96 | 5.2 ± 0.0 µM | 27.4 | AChE type of inhibition (in words) (recombinant human AChE): non-competitive; times less potent as inhibitor of AChE than donepezil (recombinant human AChE): ~1166; times less potent as inhibitor of AChE than galantamine (recombinant human AChE): about 54 |
| CC(C)(C)C1=CC(=O)C=C(SCCO)C1=O [Compound 2] | 80 ± 7 | 33 ± 1 | 2.4 |  |  | AChE type of inhibition (in words) (recombinant human AChE): mixed |
| CC(C)(C)C1=CC(=O)C(SCCO)=CC1=O [Compound 3] | 57 ± 4 | 8.8 ± 0.8 | 6.5 | 23.9 ± 1.6 µM | 5.7 | fold higher AChE inhibition potency than meta position counterpart (recombinant human AChE): approximately 1.7 |
| CNC1=CC(=O)C=C(C(C)(C)C)C1=O [Compound 13] |  |  |  |  |  | AChE inhibitory activity (recombinant human AChE; [6]): did not show any inhibitory activity; BChE inhibitory activity [2, 6]: did not show any inhibitory activity |
| CC(C)(C)C1=CC(=O)C=C(SC2CCCC2)C1=O [Compound 4] | 56 ± 8 | 30 ± 6 | 1.9 |  |  |  |
| CC(C)(C)C1=CC(=O)C(SC2CCCC2)=CC1=O [Compound 5] | 29 ± 5 | 5.2 ± 0.7 | 5.6 | 11.0 ± 0.3 µM | 11 ± 2 | AChE type of inhibition (in words) (recombinant human AChE): competitive; times less potent as inhibitor of AChE than donepezil (recombinant human AChE): ~1166; times less potent as inhibitor of AChE than galantamine (recombinant human AChE): about 54; fold higher AChE inhibition potency than meta position counterpart (recombinant human AChE): approximately 1.7 |
| CC(C)(C)C1=CC(=O)C=CC1=O [Compound 1, tert-butyl-1,4-benzoquinone] |  |  | 0.95 | 16.7 ± 0.1 µM |  | Ki (recombinant human AChE): 52 ± 6 µM; Ki [2]: 55 ± 5 µM; FRAP antioxidant activity compared to standard antioxidants Trolox and BHT [5]: approximately three times less potent than BHT; DPPH antioxidant activity relative to ascorbic acid [1]: approximately twice as potent as ascorbic acid |
| CC(C)(C)C1=CC(=O)C=C(Sc2ccccc2)C1=O [Compound 6] | 136 ± 13 | 18 ± 4 | 7.6 |  |  | DPPH antioxidant activity relative to ascorbic acid [1]: approximately twice as potent as ascorbic acid |
| CNC1=CC(=O)C(C(C)(C)C)=CC1=O [Compound 12] |  | 228 ± 56 |  |  |  | AChE inhibition (recombinant human AChE; any of the tested concentrations): did not inhibit AChE |
| COc1ccc(SC2=CC(=O)C=C(C(C)(C)C)C2=O)cc1 [Compound 8] | 85 ± 5 | 29 ± 3 | 2.9 | 3.6 ± 0.6 µM |  |  |
| CC(C)(C)C1=CC(=O)C=C(Sc2ccc(O)cc2)C1=O [Compound 7] | 37 ± 4 | 23 ± 2 | 1.6 | ≥50 µM | 16.7 ± 2.8 |  |
| CC(C)(C)C1=CC(=O)C(N2CCC[C@H]2C(=O)O)=CC1=O [Compound 14] | 21 ± 1 | 36 ± 2 | 0.58 | 19.7 ± 1.6 µM | 10.1 ± 2 | times less potent as inhibitor of AChE than donepezil (recombinant human AChE): ~1166; times less potent as inhibitor of AChE than galantamine (recombinant human AChE): about 54 |
| CC(C)(C)C1=CC(=O)C=C(N[C@@H](Cc2ccccc2)C(=O)O)C1=O [Compound 15] | 59 ± 5 | 34 ± 2 | 1.7 | 43.2 µM and 43.2 ± 1.6 µM | 15 ± 3.8 |  |
